Patent US20260185169A1, “MOLECULAR SIGNATURES TO PREDICT LONG-TERM LIVER FIBROSIS PROGRESSION” (THE BOARD OF REGENTS OF THE UNIVERSITY OF TEXAS SYSTEM, priority 2022, published 2026)

Tested on: clinical PCLS tissues
Experiment: FPS/PLS response (CES, nCounter) in organotypic ex vivo culture of clinical PCLS tissues
Assay type: cell-based, human
Description: Evaluation of galunisertib, erlotinib, AM095, bortezomib, pioglitazone, metformin, epigallocatechin gallate (EGCG), I-BET 151, JQ1, captopril, nizatidine (Selleck Chemicals); MG-132 (Sigma-Aldrich); cenicriviroc (AbbVie) (Table 2) were done in organotypic ex vivo culture of precision-cut liver slice (PCLS) tissues in the FPS validation set 2 as previously described. Patient-derived liver cell spheroids were generated from a cirrhosis patient and high-risk FPS was induced by free fatty acids, and treated with EGCG, bortezomib, cenicriviroc, and/or bezafibrate for 48 h. Mycoplasma-free human hepatic myofibroblast cell lines, LX-2 and TWNT-4, were cultured with MG-132 (20 μM) or DMSO control for 12 and 24 h in triplicates.
Total RNA was isolated from fixed tissue sections by using High Pure RNA Paraffin kit (Roche), and assessed for quality by qRT-PCR of RPL13A. Total RNA from the PCLS tissues was isolated using RNeasy kit (Qiagen). RNA samples (100-200 ng) were subjected to the PLS/FPS assay implemented in the nCounter platform (NanoString), and transcriptome profiling of the CENTAUR trial samples was performed by RNA-Seq (TrueSeq RNA Access, Illumina). Expression of BCL2, COL1A1, and ACTA2 genes was measured by qRT-PCR (Table 3). Serum protein profiling was performed by using xMAP assay (Luminex).
Total RNA was isolated from three to five 10-μm-thick formalin-fixed paraffin-embedded (FFPE) tissue sections from the PLS/FPS derivation/validation cohorts by using High Pure RNA Paraffin kit (Roche), and lack of severe RNA fragmentation was confirmed by qRT-PCR of a housekeeping gene RPL13A as previously described.^1 From freshly harvested myofibroblast cell lines, LX-2 and TWNT-4, and clinical precision-cut-liver slice (PCLS) tissues stored in RNAlater (ThermoFisher) at −80?C, total RNA was isolated using RNeasy kit (Qiagen), and the RNA integrity number (RIN)>8 by Bioanalyzer (Agilent) was regarded as sufficient quality for expression analysis. Total RNA samples (100 to 500 ng) were subjected to the gene signature assays implemented in the digital transcript counting technology (NanoString) according to manufacturer's instruction. Poor quality profiles were detected based on maximum signal intensity from positive control probes <3,000U. Raw transcript count data were log-transformed (base 2) and scaled by geometric mean of control probe data by using NanoString normalizer module implemented in GenePattern data analysis suite (www.broadinstitute.org/genepattern). Genome-wide transcriptome profiling of the CENTAUR trial samples was performed using 100 to 200 ng total RNA by RNA-Seq using exome-enriched library preparation according to the manufacturer's protocol (TrueSeq, Illumina). Raw sequencing reads were mapped onto the reference human genome (hg19) by using the STAR aligner (ver. 2.6.1b) followed by the read counting on genes via featureCounts in the Subread package (ver. 1.6.1). The raw read counts were further normalized by using the Relative Log Expression (RLE) implemented in the DESeq2 package (ver. 1.22.2). Expression of COL1A1, and ACTA2, and BCL2 genes was measured by qRT-PCR (BioRad) using ddCt method with RPL13A as housekeeping gene, as previously described (refer Table 3 for the primer sequences). Gene expression profiles of the PLS/FPS-inducible cell culture model (cell-culture-derived PLS [cPLS] system) treated with erlotinib, pioglitazone, captopril, and resveratrol were obtained from our previous study (GSE81801).

CCCCOCCOc1ccc(-c2ccc3c(c2)/C=C(/C(=O)Nc2ccc([S@@+]([O-])Cc4cncn4CCC)cc2)CCCN3CC(C)C)cc1 [Cenicriviroc]
FPS response rate (number of responding patients) (count of patients with CES-based FPS response, PCLS cultured 24 h with agent vs vehicle): 4
PLS response rate (number of responding patients) (count of patients with PLS response, ex vivo PCLS culture): 7
